Source: the supplement of paper PMC10307832

How the values were obtained:
Test in all cases: relative viability (nuclei count vs DMSO), 5 days (fraction); higher = more cells survive
MK-8033 + Navitoclax = compound: Cn1cc(-c2cnc3ccc4ccc(CS(=O)(=O)NCc5ccccn5)cc4c(=O)c3c2)cn1 [MK-8033] + CC1(C)CCC(c2ccc(Cl)cc2)=C(CN2CCN(c3ccc(C(=O)NS(=O)(=O)c4ccc(N[C@H](CCN5CCOCC5)CSc5ccccc5)c(S(=O)(=O)C(F)(F)F)c4)cc3)CC2)C1 [Navitoclax] (partner 0.5 µM)
Outline: (§1)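 Relative viability divides the nuclei count in treated wells by that in vehicle wells. Lung cancer cell lines were seeded in 1536-well plates, dosed by pin tool the next day, and fixed and stained after 5 days in one step with final 0.05% Triton X-100, 1% formaldehyde and 1 ug/ml Hoechst. Dosing was a single drug or a fixed anchor-drug dose plus five library-drug doses (not always all listed) in √10 steps, and values are medians of duplicate plates imaged at 4×.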

RU-SKI 43 + Pictilisib = compound: CC[C@@H](C)CNCC(=O)N1CCC2=C([C@@H]1COC3=CC=CC(=C3)C)C=CS2 [RU-SKI 43] + CS(=O)(=O)N1CCN(Cc2cc3nc(-c4cccc5[nH]ncc45)nc(N4CCOCC4)c3s2)CC1 [Pictilisib] (partner 1 µM)
Outline: as §1

Irinotecan + Lapatinib = compound: CCc1c2c(nc3ccc(OC(=O)N4CCC(N5CCCCC5)CC4)cc13)-c1cc3c(c(=O)n1C2)COC(=O)[C@]3(O)CC [Irinotecan] + CS(=O)(=O)CCNCc1ccc(-c2ccc3ncnc(Nc4ccc(OCc5cccc(F)c5)c(Cl)c4)c3c2)o1 [Lapatinib] (partner 2 µM)
Outline: as §1

MK-8033 + Linsitinib = compound: Cn1cc(-c2cnc3ccc4ccc(CS(=O)(=O)NCc5ccccn5)cc4c(=O)c3c2)cn1 [MK-8033] + C[C@]1(O)C[C@@H](c2nc(-c3ccc4ccc(-c5ccccc5)nc4c3)c3c(N)nccn32)C1 [Linsitinib] (partner 1 µM)
Outline: as §1

Row | Cell Line | relative viability (MK-8033 + Navitoclax; first compound 0.02 µM) | relative viability (MK-8033 + Navitoclax; first compound 0.06325 µM) | relative viability (MK-8033 + Navitoclax; first compound 0.2 µM) | relative viability (MK-8033 + Navitoclax; first compound 0.6325 µM) | relative viability (MK-8033 + Navitoclax; first compound 2 µM) | relative viability (RU-SKI 43 + Pictilisib; first compound 0.1 µM) | relative viability (RU-SKI 43 + Pictilisib; first compound 0.3162 µM) | relative viability (RU-SKI 43 + Pictilisib; first compound 1 µM) | relative viability (RU-SKI 43 + Pictilisib; first compound 3.162 µM) | relative viability (RU-SKI 43 + Pictilisib; first compound 10 µM) | relative viability (Irinotecan + Lapatinib; first compound 0.6325 µM) | relative viability (Irinotecan + Lapatinib; first compound 2 µM) | relative viability (Irinotecan + Lapatinib; first compound 6.325 µM) | relative viability (Irinotecan + Lapatinib; first compound 20 µM) | relative viability (MK-8033 + Linsitinib; first compound 0.02 µM) | relative viability (MK-8033 + Linsitinib; first compound 0.06325 µM) | relative viability (MK-8033 + Linsitinib; first compound 0.2 µM) | relative viability (MK-8033 + Linsitinib; first compound 0.6325 µM) | relative viability (MK-8033 + Linsitinib; first compound 2 µM)
1 | ChaGo-K-1 | 1.2 | 0.962 | 0.945 | 1.04 | 0.922 | 1.07 | 0.75 | 1.12 | 0.435 | 0.495 | – | – | – | – | – | – | – | – | –
2 | NCI-H2170 | 0.559 | 0.55 | 0.612 | 0.586 | 0.597 | 0.293 | 0.256 | 0.334 | 0.282 | 0.278 | 0.271 | 0.264 | 0.231 | 0.2 | – | – | – | – | –
3 | ABC-1 | – | – | – | – | – | 0.676 | 0.842 | 0.753 | 0.701 | 0.772 | 1.05 | 1.17 | 0.646 | 0.574 | 0.744 | 0.791 | 0.676 | 0.829 | 0.657
4 | NCI-H650 | – | – | – | – | – | 0.947 | 0.793 | 0.829 | – | 0.926 | 0.757 | 0.693 | 0.275 | 0.31 | 0.868 | 0.91 | 0.85 | 0.805 | 0.773
5 | NCI-H441 | 0.566 | 0.448 | 0.569 | 0.573 | 0.415 | 0.466 | 0.491 | 0.47 | 0.609 | 0.468 | – | – | – | – | 0.505 | 0.401 | 0.54 | 0.551 | 0.53
6 | NCI-H661 | – | – | – | – | – | 0.432 | 0.409 | 0.484 | 0.355 | 0.414 | 0.478 | 0.357 | 0.314 | 0.296 | 0.55 | 0.5 | 0.53 | 0.59 | 0.507
